# Assay results: patent publication US20240336658A1, “CYCLIC PEPTIDE AND PREPARATION METHOD AND USE THEREOF” (HANGZHOU HUIBO SCIENCE AND TECHNOLOGY CO., LTD, priority 2021, published 2024)
# Tests used:
# fibroblasts (NIH/3T3) = assay: Scratching experiment, Hst1 cyclic peptides (Examples 11 and 12); assay type: cell-based; conditions: dosage needed to achieve the same pharmaceutical effect in the scratch experiment
# Experimental: At the same time, fibroblasts (NIH/3T3; GNM 6; Chinese Academy of Sciences, China) were plated into a 6-well plate at a number of 2×10^6/well and cultured to a density of 70-80%. The cells were starved for 8-12 hours before the experiment. Mitomycin C (Sigma Aldrich, USA) was added into the culture medium to make its concentration in the culture medium be 15 μg/ml, and the culture medium was changed after 3 hours of treatment. Scratching was conducted with a 200 μl pipette tip perpendicular to the bottom of the well-plate with the same force, and the well-plate was rinsed with PBS twice after scratching. Each well was added with an appropriate amount of a DEME medium (10% FBS, 1% double antibody), and except for the blank control group, each well was added with 10 μM of the linear Hst1, 0.01 μM of the propynylglycine-Hst1 cyclic peptide, 0.1 μM of the propynylglycine-Hst1 cyclic peptide and 1 μM of the propynylglycine-Hst1 cyclic peptide as experimental groups. At 0 hour, the cells in each group were photographed by using a microscope (Olympus, Japan). […] The scratched area of each group was calculated by using imageJ (Rawak Software, Inc. Germany) software, and the scratch area at 0 hour was an initial scratch area. The scratch healing rate was calculated as follows: […]
# [1] = tested on: full-thickness skin defect wound surfaces; assay: Effect of Hst1-MAD cyclic peptide on wound repair in mice (Example 22): healing rate, histology, immunohistochemistry, immunofluorescence double staining, Western Blot; assay type: in vivo, C57 BL/6 mice
# Experimental: […]. 36 healthy male special pathogen-free grade C57 BL/6 mice (purchased from Guangdong Experimental Animal Center) of 6-8 weeks old and weighing 22-28 g. They were intraperitoneally injected with 5 ml/kg of 1% pentobarbital sodium for anesthesia. After the mice had no corneal reflex, the hair on their backs was carefully removed and disinfected with alcohol. […] full-thickness skin defect wound surfaces were prepared on the back of each mouse by using a circular skin punch. […]. Each wound surface was added with 0.5 ml of four drugs respectively, and administration was conducted every day until the wound surfaces of the experimental groups healed. Photographs were taken on days 0, 3, 5, and 10 after surgery, and wound tissues were sampled on days 3, 5, and 10 for subsequent pathological staining.
# was observed and photographed with a digital camera (see FIG. 19), and the wound healing rate was calculated (see FIG. 20). Wound healing rate=(wound area immediately after injury−unhealed wound area at each time point)÷wound area immediately after injury×100%.
# The wound specimens were fixed in 4% paraformaldehyde for 48 hours, rinsed with tap water for 10 minutes, dehydrated with graded ethanol, permeabilized with xylene, and embedded in paraffin to prepare 4 μm thick sections. Some sections were taken and subjected to HE staining to detect an epidermal thickness and subjected to Masson staining to detect newly grown collagen. Through hematoxylin-cosin staining (HE), the effects of the four groups of drugs on newly grown epidermal at the wound surface on day 10 were evaluated (FIGS. 21 and 22). Through Masson staining, the effects of the four groups of drugs on newly grown collagen at the wound surface on days 5 and 10 were evaluated (FIGS. 23 and 24). 5 sections were taken from each mouse, and 5 fields of view were selected for each section. Data analysis was performed using the software Image-pro Plus.
# and rehydrated, subjected to antigen thermal repair with a 0.1 mol/L citric acid buffer (with a pH value of 6.0) for 20 minutes, treated with hydrogen peroxide with a volume fraction of 10% for inactivation of endogenous peroxidase for 10 minutes, and blocked with 50 g/L of bovine serum albumin for 2 hours. It was added with a rabbit anti-mouse CD31 primary antibody (with a dilution ratio of 1:300) and a mouse anti-VEGF (with a dilution ratio of 1:100), incubated overnight at 4° C., and washed with PBS. It was rewarmed for 1 hour, washed with PBS, added dropwise with ready-to-use biotinylated goat anti-mouse and goat anti-rabbit IgG secondary antibodies, incubated for 2 hours, and washed with PBS. It was subjected to DAB development, hematoxylin counterstaining. gradient ethanol dehydration, xylene permeabilization, and resin blocking. 5 sections were taken from each mouse, and 5 fields of view were selected for each section. The sections were observed under a 400× inverted fluorescence microscope, and analyzed for the number of CD31-positive blood vessels (see FIG. 25) and VEGF expression amounts (see FIG. 26) by using Image-pro Plus software.
# The specific steps were: the previous steps were the same as those of 1.3.3, and they were incubated with the antibodies MHCII (orb101661; 1:500; Biorbyt Biotechnology Co., Ltd., Wuhan, CN), CD11c (97585; 1:200; Cell Signaling Technology Inc., Boston, MA), CD68 (GB11067; 1:300; Servicebio Inc.), CD80 (GB11034; 1:300; Servicebio Inc.), CD206 (GB11062; 1:500; Servicebio Inc.), claudin1 (37-4900; 1:100; Thermo Fisher Scientific Co., Ltd, Shanghai, CN) and claudin2 (32-5600; 1:200; Thermo Fisher Scientific Co., Ltd.) at 4° C. overnight. The fluorescent-labeled secondary antibodies were incubated at room temperature for 1 h, followed by 4′,6-diamidino-2′-phenylindole (DAPI) (G1012; Google Biotechnology Co., Ltd., Wuhan, CN). The stained sections were photographed by using a fluorescence microscope (Nikon Eclipse TI-SR. Tokyo, Japan). […]
# [2] = day 3 after surgery, Western Blot, 10 μM Histatin1
# [3] = day 10, immunofluorescence, 1 μM Click-Hst1-MAD, 1 μM Hst1-MAD, 10 μM Histatin1
substance,measurement,setting,value
"Linear Hst1: linear peptide Hst1 (Histatin1), amino acid sequence SEQ ID NO.1",Dosage of agents required for scratch test,fibroblasts (NIH/3T3),10 µM
same,number of M2 macrophages (CD68+ and CD206+),"[1]; day 3, 1 μM Click-Hst1-MAD, 10 μM Hst1, M±SD",12.67±7.34
same,expression level of HO-1 relative to the control group,[1]; [2],1.80 times
same,expression level of Nrf2 relative to the control group,[1]; [2],1.27 times
same,expression level of NQO1 relative to the control group,"[1]; day 3 after surgery, Western Blot, 10 μM Hst1",2.08 times
same,number of dendritic cells (MHCII+ and CD11c+) relative to the control group,"[1]; day 3 after surgery, 10 μM Hst1, 1 μM Click-Hst1-MAD",1.75 times
same,VEGF expression amount,"[1]; day 5, 1 μM Click-Hst1-MAD, 10 μM Histatin1, 1 μM Hst1-MAD compared with each other",comparable
same,expression levels of the dermal collagen,"[1]; day 5, 1 μM Hst1-MAD and 10 μM Histatin1 compared with each other",equivalent
same,Claudin1 expression intensity,[1]; [3],equivalent expression level of Claudin1
same,Claudin2 expression intensity,[1]; [3],no obvious effect on promoting Claudin2 expression
same,VEGF expression amount,"[1]; day 10, 1 μM Click-Hst1-MAD, 10 μM Histatin1",higher
same,number of dendritic cells (MHCII+ and CD11c+),"[1]; days 3 and 5 evaluated, 1 μM Click-Hst1-MAD, 1 μM Hst1-MAD, 10 μM Histatin1",significantly higher than that in the Control group
same,number of M1 macrophages (CD68+ and CD80+),"[1]; days 3 and 5 evaluated, 1 μM Hst1-MAD, 10 μM Histatin1",lower than that in the Control group
same,number of CD31-positive blood vessels,"[1]; days 5 and 10, immunohistochemistry, 1 μM Click-Hst1-MAD, 1 μM Hst1-MAD, 10 μM Histatin1",significantly higher than that in the Control group
